The structures appear in SMILES notation.

The test system of this assay is metastatic melanoma. As to the kind of experiment: Pilot clinical study: temozolomide chemotherapy timed relative to the CRP oscillation cycle. The class given is in vivo, human. Here is the method: A pilot clinical study was conducted on 12 patients with metastatic melanoma (median age 61; 4 female; 7 with M1c disease) at The Mayo Clinic, Rochester, Minn., USA headed by Dr Svetomir Markovic. Serial CRP measurements were taken every 2-3 days for 2 weeks. The CRP oscillation cycle was identified by analysis of the raw data without any computer aided modelling, and chemotherapy with temozolomide (200 mg/m2 for 5 days, every 28 days) was initiated. Patients were evaluated for clinical and immune response endpoints every 8 weeks until progression.

Where the note is “the other patients, treated post CRP-peak”, `Cn1nnc2c(C(N)=O)ncn2c1=O` [temozolomide] came in with a time to progression below 5 months. Also, for the setting “two patients with metastatic melanoma treated in the pre-peak section of the CRP cycle, temozolomide 200 mg/m2 for 5 days, every 28 days”, the remain progression-free is above 2 years.

The values are drawn from patent US10714208B2, “Computer systems for treating diseases” (Biotempus Limited, priority 2009, dated 2020).
